Measured values as given in US12350269B2 (Alexion Pharmaceuticals, Inc., priority 2015, dated 2025).

Tests used:
IL4 signaling = test: Phase 1 study: whole blood PD, IL4 signaling; format: in vivo; conditions: Homo sapiens; 40 mg/day; read-out: % Inh. IL4 (Cmin-Cmax) Extrapolated from PK/PD fit of all data
Description: (§1) Human Whole Blood Assays: Inhibition of SYK- and JAK-dependent and independent signaling was determined by stimulating human whole blood with various agonists against BCR and cytokine receptors. 100 μL aliquots of heparinized healthy human whole blood was stimulated as previously described (Coffey et al, J. of Pharm. and Experimental Therapeutics, 351:538-548, 2014), using an 8-point concentration curve to determine IC50's. Signaling and activation responses were determined by Fluorescence-activated cell sorting (“FACS”). For the clinical trial, whole blood samples were collected prior to and after dosing. Percent inhibition was calculated by normalizing to the pre-dose stimulation response.
Pharmacokinetics (“PK”), pharmacodynamics (“PD”), and safety were monitored. Response was assessed by standard criteria. The level of inhibition of SYK and JAK was determined using a variety of whole blood assays measuring signaling via receptors for the B-cell antigen, IL2, IL4, IL6, and GM-CSF. Serum markers of tumor burden, including CCL3, CCL4, and other markers of inflammation (β2M and CRP), were also being measured.

JAK2 [1] = test: Healthy normal human whole blood assay: Monocytes, GMCSF stimulation, pSTAT5 Y694 readout; format: cell-based; conditions: Monocyte
[2] = test system: rat collagen induced arthritis; test: Rat collagen induced arthritis model; format: in vivo
Description: Collagen antibody titers were determined by ELISA (R&D Systems). Steady-state serum Cmax was determined using liquid chromatography-tandem mass spectrometry.
The average plasma concentrations (Cmax) for each dosing group is shown at the right of the graph. Asterisks denote statistical significant relative to vehicle by student T test (p<0.05).

PKC = test: Healthy normal human whole blood assay: B-cell, PMA stimulation, pERK Y204 readout; format: cell-based
[3] = test system: anti-IgM induced signalling pathways; test: Primary CLL cells: B cell receptor induced signalling (immunoblotting, flow cytometry); format: cell-based; conditions: primary human CLL cells
Description: (§2) Isolated CLL cells were cultured in RPMI-1640 with 15% fetal bovine serum (Gibco, Grand Island, NY, USA), penicillin (100 IU), and streptomycin (100 μg/mL), at a density of 1×10^7 cells/mL in the presence or absence of […] CpG, 100 ng/mL CD40L, 10 ng/mL IL-4. Anti-IgM stimulation was conducted with plate-bound anti-IgM (10 μg/mL). CLL cells were stimulated with 10 ng/mL IL-6 (R&D Systems, Minneapolis, MN), to detect the phosphorylation of JAK1/JAK2 (Cell Signaling Technology, Danvers, MA) and STAT3 (Cell Signaling Technology, Danvers, MA, USA).

JAK2 [4] = biological target: T1, JAK2 (Homo sapiens, UniProt O60674); test: Purified kinase assay (Millipore); format: biochemical; conditions: 300 nM ATP
T1 construct: purchased Millipore

MLK1 = biological target: T2, MLK1 (Homo sapiens, UniProt P80192); test: Purified kinase assay (Millipore); format: biochemical; conditions: 300 nM ATP
T2 construct: purchased Millipore
Description: (§3) Purified Kinase Assays: Performed at Millipore at a fixed concentration of 300 nM ATP. A 10-point concentration curve was used to determine IC (Inhibitory Concentration).

MARK1 = biological target: T3, MARK1 (Homo sapiens, UniProt Q9P0L2); test: Purified kinase assay (Millipore); format: biochemical; conditions: 300 nM ATP
T3 construct: purchased Millipore
Description: as §3

FMS = biological target: T4, FMS (Homo sapiens, UniProt P07333); test: Purified kinase assay (Millipore); format: biochemical; conditions: 300 nM ATP
T4 construct: purchased Millipore
Description: as §3

ITK = biological target: T5, ITK (Homo sapiens, UniProt Q08881); test: Purified kinase assay (Millipore); format: biochemical; conditions: 300 nM ATP
T5 construct: purchased Millipore
Description: as §3

CHK1 = biological target: T6, CHK1 (Homo sapiens, UniProt O14757); test: Purified kinase assay (Millipore); format: biochemical; conditions: 300 nM ATP
T6 construct: purchased Millipore
Description: as §3

FLT4 = biological target: T7, FLT4 (Homo sapiens, UniProt P35916); test: Purified kinase assay (Millipore); format: biochemical; conditions: 300 nM ATP
T7 construct: purchased Millipore
Description: as §3

TYK2 = biological target: T8, TYK2 (Homo sapiens, UniProt P29597); test: Purified kinase assay (Millipore); format: biochemical; conditions: 300 nM ATP
T8 construct: purchased Millipore
Description: as §3

GCK = biological target: T9, GCK (Homo sapiens, UniProt Q12851); test: Purified kinase assay (Millipore); format: biochemical; conditions: 300 nM ATP
T9 construct: purchased Millipore
Description: as §3

MST2 = biological target: T10, MST2 (Homo sapiens, UniProt Q13188); test: Purified kinase assay (Millipore); format: biochemical; conditions: 300 nM ATP
T10 construct: purchased Millipore
Description: as §3

RET = biological target: T11, RET (Homo sapiens, UniProt P07949); test: Purified kinase assay (Millipore); format: biochemical; conditions: 300 nM ATP
T11 construct: purchased Millipore
Description: as §3

[5] = test system: IL-4 induced STAT6 phosphorylation; test: Primary CLL cells: IL-4 induced signalling; format: cell-based, human
Description: as §2

[6] = test system: BCR/SYK and cytokine (IL2, IL4, IL6) JAK/STAT signaling; test: Healthy whole blood ex vivo spiking experiments (summary); format: cell-based, human
Description: as §1
Plasma concentrations above 2 μM have been safely achieved in cancer patients following once daily oral dosing, while maintaining steady-state Cmin of ˜1 μM.

[7] = test system: BTK^C481S-transfected TMD8 cells; test: Cell growth of transfected TMD8 cells (Muse Count & Viability); format: cell-based; conditions: 250 nM, 7 days
Description: Cell transfection, cell count and viability assay: TMD8 cells were transfected with constructs of WT BTK or BTK^C481S mutants using kit V, Program U-13 on Amaxa Nucleofector, according to the manufacturer's protocols (Amaxa, Cologne, Germany). After transfection, the cells were co-cultured with NKTert cells in a 24-well plate for 24 hrs for recovery.

T9 sequence (Q12851 whole entry): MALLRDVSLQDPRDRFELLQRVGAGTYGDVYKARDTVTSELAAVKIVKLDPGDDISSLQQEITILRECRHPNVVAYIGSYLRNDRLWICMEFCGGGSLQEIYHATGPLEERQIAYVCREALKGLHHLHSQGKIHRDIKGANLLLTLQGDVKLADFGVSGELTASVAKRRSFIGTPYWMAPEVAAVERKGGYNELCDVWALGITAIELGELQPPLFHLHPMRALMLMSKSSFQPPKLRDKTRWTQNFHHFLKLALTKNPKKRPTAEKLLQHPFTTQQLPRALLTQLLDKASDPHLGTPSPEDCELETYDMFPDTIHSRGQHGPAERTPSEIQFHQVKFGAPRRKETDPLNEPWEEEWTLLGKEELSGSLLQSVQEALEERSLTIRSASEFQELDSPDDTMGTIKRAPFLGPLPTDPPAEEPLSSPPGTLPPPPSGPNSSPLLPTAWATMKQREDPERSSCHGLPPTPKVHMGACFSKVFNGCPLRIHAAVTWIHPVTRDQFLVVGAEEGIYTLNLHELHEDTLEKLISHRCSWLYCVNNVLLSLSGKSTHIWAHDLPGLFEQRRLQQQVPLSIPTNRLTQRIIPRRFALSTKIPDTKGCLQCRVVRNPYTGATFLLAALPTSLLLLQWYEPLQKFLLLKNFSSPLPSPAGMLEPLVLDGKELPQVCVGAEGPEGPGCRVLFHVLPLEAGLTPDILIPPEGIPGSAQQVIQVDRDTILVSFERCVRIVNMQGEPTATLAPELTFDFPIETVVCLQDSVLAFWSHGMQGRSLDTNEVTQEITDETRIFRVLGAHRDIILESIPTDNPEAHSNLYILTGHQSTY
T2 sequence (P80192 whole entry): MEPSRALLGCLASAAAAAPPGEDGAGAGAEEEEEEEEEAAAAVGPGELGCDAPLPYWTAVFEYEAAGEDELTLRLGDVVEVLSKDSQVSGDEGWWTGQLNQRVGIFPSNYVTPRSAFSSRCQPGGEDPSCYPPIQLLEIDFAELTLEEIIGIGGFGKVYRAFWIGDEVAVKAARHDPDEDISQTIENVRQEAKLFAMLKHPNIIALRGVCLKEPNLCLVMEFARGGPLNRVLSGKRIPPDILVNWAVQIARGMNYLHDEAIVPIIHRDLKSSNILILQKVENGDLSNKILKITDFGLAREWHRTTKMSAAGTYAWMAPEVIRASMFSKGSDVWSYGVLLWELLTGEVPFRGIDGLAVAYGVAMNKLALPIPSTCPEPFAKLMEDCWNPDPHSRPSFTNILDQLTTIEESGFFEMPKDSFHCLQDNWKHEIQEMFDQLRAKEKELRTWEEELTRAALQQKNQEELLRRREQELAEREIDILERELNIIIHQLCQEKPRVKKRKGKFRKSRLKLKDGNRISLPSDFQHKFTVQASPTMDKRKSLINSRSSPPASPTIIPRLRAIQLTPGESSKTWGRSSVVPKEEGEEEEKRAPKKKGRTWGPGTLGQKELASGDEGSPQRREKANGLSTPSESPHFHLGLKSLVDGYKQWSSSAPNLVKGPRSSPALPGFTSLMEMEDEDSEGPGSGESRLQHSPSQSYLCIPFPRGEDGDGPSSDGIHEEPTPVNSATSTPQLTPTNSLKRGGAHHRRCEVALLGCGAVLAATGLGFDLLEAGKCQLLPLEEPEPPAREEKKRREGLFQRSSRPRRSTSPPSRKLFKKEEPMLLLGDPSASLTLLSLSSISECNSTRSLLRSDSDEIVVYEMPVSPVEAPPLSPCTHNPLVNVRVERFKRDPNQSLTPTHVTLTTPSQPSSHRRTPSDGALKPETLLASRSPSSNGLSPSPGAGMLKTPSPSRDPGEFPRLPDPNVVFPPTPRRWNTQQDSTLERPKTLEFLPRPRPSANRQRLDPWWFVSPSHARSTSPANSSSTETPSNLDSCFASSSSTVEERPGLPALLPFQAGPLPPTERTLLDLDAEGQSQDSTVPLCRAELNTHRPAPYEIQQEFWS
T1 sequence (O60674 whole entry): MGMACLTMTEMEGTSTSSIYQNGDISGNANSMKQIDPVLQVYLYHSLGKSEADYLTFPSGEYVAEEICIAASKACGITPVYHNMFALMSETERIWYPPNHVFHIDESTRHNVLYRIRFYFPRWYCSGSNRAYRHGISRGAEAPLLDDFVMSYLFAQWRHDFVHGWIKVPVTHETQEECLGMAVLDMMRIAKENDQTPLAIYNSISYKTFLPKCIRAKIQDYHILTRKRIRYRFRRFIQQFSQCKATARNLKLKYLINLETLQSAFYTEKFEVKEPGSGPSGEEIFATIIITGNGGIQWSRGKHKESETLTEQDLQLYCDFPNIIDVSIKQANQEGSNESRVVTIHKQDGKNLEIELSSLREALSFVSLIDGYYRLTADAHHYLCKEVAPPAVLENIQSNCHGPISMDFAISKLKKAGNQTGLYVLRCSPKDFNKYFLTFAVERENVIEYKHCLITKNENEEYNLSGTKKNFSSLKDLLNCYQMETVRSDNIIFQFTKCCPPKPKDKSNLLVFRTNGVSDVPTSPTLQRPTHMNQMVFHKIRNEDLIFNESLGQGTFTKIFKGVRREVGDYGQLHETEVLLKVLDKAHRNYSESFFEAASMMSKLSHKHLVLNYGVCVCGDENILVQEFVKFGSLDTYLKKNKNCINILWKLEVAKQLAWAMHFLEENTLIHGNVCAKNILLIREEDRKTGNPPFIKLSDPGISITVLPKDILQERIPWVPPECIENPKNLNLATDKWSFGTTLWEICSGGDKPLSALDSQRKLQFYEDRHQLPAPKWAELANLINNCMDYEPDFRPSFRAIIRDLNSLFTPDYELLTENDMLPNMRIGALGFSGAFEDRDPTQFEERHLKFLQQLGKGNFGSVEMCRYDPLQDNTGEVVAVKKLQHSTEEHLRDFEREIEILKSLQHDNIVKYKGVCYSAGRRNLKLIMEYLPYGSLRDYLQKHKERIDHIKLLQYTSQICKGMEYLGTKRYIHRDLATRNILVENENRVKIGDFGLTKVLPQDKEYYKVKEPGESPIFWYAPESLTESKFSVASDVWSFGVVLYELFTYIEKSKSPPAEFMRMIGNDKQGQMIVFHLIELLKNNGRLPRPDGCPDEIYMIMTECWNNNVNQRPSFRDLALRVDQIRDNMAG
T3 sequence (Q9P0L2 whole entry): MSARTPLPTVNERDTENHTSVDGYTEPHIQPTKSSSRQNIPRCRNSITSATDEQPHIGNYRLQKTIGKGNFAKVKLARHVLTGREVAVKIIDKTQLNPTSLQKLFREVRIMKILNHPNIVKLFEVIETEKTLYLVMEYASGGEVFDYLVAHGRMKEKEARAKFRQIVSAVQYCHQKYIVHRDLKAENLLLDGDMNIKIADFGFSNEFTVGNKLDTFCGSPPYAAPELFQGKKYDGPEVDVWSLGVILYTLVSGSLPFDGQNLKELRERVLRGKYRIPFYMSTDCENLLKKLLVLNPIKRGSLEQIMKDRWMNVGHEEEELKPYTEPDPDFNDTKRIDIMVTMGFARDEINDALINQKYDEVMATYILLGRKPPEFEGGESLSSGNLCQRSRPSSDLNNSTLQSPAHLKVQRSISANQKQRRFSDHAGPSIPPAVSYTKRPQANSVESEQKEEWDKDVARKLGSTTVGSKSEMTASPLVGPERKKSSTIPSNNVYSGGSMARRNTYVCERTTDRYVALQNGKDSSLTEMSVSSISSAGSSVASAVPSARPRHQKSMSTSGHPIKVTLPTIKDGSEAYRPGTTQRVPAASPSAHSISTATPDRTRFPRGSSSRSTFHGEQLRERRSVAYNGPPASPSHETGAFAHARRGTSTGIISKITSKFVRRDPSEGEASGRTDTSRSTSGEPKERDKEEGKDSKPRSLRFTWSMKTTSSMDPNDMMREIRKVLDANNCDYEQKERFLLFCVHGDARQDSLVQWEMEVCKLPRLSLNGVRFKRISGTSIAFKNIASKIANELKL
T6 sequence (O14757 whole entry): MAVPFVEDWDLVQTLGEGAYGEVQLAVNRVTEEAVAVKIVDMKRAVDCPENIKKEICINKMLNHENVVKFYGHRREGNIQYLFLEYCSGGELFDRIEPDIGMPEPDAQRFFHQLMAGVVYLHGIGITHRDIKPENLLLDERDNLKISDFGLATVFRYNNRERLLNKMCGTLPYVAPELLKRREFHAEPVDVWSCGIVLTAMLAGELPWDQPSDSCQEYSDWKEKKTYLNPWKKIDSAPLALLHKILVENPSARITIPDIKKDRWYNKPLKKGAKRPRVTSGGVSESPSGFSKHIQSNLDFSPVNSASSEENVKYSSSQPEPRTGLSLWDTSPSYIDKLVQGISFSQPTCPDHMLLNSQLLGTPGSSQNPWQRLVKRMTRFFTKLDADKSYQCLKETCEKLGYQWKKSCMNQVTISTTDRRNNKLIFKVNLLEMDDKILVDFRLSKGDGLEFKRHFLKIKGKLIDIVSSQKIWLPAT
T10 sequence (Q13188 whole entry): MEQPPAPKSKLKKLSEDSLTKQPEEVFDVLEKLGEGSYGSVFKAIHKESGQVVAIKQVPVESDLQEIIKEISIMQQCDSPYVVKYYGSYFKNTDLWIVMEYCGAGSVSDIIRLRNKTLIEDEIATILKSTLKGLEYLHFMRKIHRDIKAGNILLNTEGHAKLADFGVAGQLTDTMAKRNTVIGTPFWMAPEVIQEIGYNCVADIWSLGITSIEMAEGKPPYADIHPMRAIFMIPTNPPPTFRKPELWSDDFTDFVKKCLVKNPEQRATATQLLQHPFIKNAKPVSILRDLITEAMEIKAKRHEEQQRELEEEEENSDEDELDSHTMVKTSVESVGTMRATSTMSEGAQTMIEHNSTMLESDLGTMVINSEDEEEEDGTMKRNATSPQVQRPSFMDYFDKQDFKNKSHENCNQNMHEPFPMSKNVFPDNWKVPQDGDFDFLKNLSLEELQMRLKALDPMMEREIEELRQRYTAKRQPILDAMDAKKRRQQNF

## CCS(=O)(=O)N1CCN(c2ccc(Nc3ncc(C(N)=O)c(NC4CC4)n3)cc2)CC1 [cerdulatinib, 4-(cyclopropylamino)-2-(4-(4-(ethylsulfonyl)piperazin-1-yl)phenylamino)pyrimidine-5-carboxamide]
IL4 signaling
  inhibition at 40 mg: 63 to 78%
JAK2 [1]
  IC50: > 4000 nM
[2]
  Caverage corresponding to complete arrest of inflammation and auto-antibody generation: 0.3 to 0.4 µM
  average plasma concentration at which inflammation and joint destruction were arrested: 0.3 µM
PKC
  IC50: > 4000 nM
[3]
  concentration (achievable in patients) at which BCR and IL-4 mediated signalling was overcome: ~2.2 µM
JAK2 [4]
  IC50: 6 nM
MLK1
  IC50: 5 nM
MARK1
  IC50: 10 nM
FMS
  IC50: 5 nM
ITK
  IC50: 194 nM
CHK1
  IC50: 42 nM
FLT4
  IC50: 51 nM
TYK2
  IC50: 0.5 nM
GCK
  IC50: 18 nM
MST2
  IC50: 15 nM
RET
  IC50: 105 nM
[5]
  IL-4 induced STAT6 phosphorylation: abrogated
[5]; 24 hours, in the presence of ZVAD
  IL-4 increased surface IgM expression: inhibited
[6]
  inhibition at the cellular level and/or in patients for AMPK, JAK2, TBK-1, RSK2, and RSK4: no evidence of inhibition
[6]; Homo sapiens, healthy whole blood, ex vivo spiking, read-out: IC50's, BCR/SYK and cytokine (IL2, IL4, IL6) JAK/STAT signaling
  IC50: 200 to 900 nM
[7]
  cell growth: effectively blocked
